This is an account of results in US20250177408A1, “INHIBITOR OF INTERACTION BETWEEN YAP/TAZ AND TEAD, PREPARATION THEREOF, PHARMACEUTICAL COMPOSITION THEREOF AND USE THEREOF” (ETERN BIOPHARMA (SHANGHAI) CO., LTD., priority 2022, published 2025).

Structures can show the parent of a compound that is named as a salt. Some results are limits rather than exact numbers.

Assay [1] addresses YAP-TEAD protein interaction (His-TEAD1 (209-426) protein, Bio-YAP peptide (60-100)) (Homo sapiens, UniProt P28347). The experiment in a line: YAP-TEAD protein interaction HTRF experiment. The class given is binding. Conditions: His-TEAD1 (209-426) 10 nM, Bio-YAP peptide 50 nM, read-out: Activity of each compound in blocking YAP-TEAD protein interaction (grades of IC50 values). As for the experimental part:
In this example, the YAP-TEAD protein interaction HTRF experiment was used to detect the activity of each compound in blocking the YAP-TEAD protein interaction.
The experiment was carried out according to the following operation steps:
Step 1: His-TEAD1 (209-426) protein was added to a 384-well detection white plate to a final concentration of 10 nM, and buffer was used as the background signal well. The compounds to be tested were subjected to 3-fold dilution and a total of 10 concentration gradients were set up, and each diluted solution was mixed well. A certain volume of the compound to be tested was added to each well separately, 2 replicates were set for each concentration, and the final concentration of DMSO was controlled at 1%. Incubation was carried out at room temperature for 20 minutes. The amino acid sequence of TAED1 (209-426) used in this step is shown in SEQ ID NO: 1:
After mixing evenly, the mixture was incubated at room temperature for 10 minutes.
Step 3: Anti-His-Eu cryptate gold and streptavidin-XL665 were diluted according to the instructions and mixed in equal proportions. A certain volume of the detection reagent was added to the well, and the mixture was incubated at room temperature for 1 hour.
Step 4: The signal was detected using an Envision (Perkin Elmer) microplate reader at an excitation wavelength of 320 nm and emission wavelengths of 665 nm and 620 nm.
Step 5: The signal was calculated based on the ratio of Em665/Em620*10000.
(§1) The inhibition percentage (%) was calculated using the following formula: […]
The half-maximal inhibitory concentration (IC50) values were calculated using GraphPad Prism software.
(In TR-FRET formats the signal depends on donor and acceptor labels being close together.)

A further assay deals with MSTO-211H cells. The experiment in a line: Cell proliferation inhibition experiment (CellTiter-Glo). Conditions: Homo sapiens, 96 hours, read-out: Inhibitory activity of each compound on the proliferation of MSTO-211H cells (grades of IC50 values). It is filed as cell-based. As for the experimental part:
In this example, the intracellular ATP was quantitatively determined by the CellTiter-Glo luminescence cell viability detection kit to detect the number of living cells in the culture.
Step 1: MSTO-211H (ATCC, CRL-2081TM) or NCI-H2052 (ATCC, CRL-5915TM) cells were inoculated in a 96-well plate at a density of 1500 cells per well with a volume of 100 μL per well, and the cells were incubated overnight in a 37° C., 5% carbon dioxide incubator. The culture medium used was RPMI1640 medium (GIBCO-A10491-01)+10% FBS (GIBCO-10099141C)+1% penicillin/streptomycin (Pen/Strep) (GIBCO-15070-063).
Step 2: The cells were treated with the compounds to be tested. The compounds to be tested were 3-fold diluted, and a total of 9 concentration gradients were set up; a certain volume of DMSO or the compounds to be tested was added to each well, respectively, and 2 replicates were set up for each concentration, and the final concentration of DMSO was controlled to be no higher than 0.5%. The cells were incubated for 96 hours in a 37° C., 5% carbon dioxide incubator.
Step 3: Cell viability was detected in the control group and treatment group using CellTiter-Glo Luminescent Cell Viability Assay kit (Promega, G7570). 50 μL of CellTiter-Glo was added to each well, mixed well, and incubated at room temperature for 10 minutes. The signal was read using En Vision® Multilabel Plate Reader (Perkin Elmer).
as §1
Using Graphpad Prism software, the IC50 values of the compounds inhibiting the CTG signal of cell proliferation activity was calculated.
In general terms: ATP-based viability assays read luminescence as a measure of living cells.

Chain of YAP-TEAD protein interaction (His-TEAD1 (209-426) protein, Bio-YAP peptide (60-100)) (P28347 209-426): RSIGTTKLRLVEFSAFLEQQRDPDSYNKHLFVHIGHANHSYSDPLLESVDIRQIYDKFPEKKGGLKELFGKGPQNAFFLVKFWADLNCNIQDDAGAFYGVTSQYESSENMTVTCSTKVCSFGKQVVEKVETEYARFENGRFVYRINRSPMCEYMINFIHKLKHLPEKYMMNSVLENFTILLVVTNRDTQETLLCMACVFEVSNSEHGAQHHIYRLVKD

Regarding `Cn1cc2c(n1)COc1c-2cc(C#N)c(-c2c(Cl)c(F)cc3c2C[C@](c2ccccc2)([C@@H]2CCCN2)O3)c1F` (atropisomer, axis not shown) [Compound 2, (S)-7-((S)-5-Chloro-6-fluoro-2-phenyl-2-((S)-pyrrolidin-2-yl)-2,3-dihydrobenzofuran-4-yl)-6-fluoro-2-methyl-2,4-dihydrochromeno[3,4-c]pyrazole-8-carbonitrile], the IC50 in assay [1] was under 50 nM; with MSTO-211H cells, 200 to 500 nM.

On to `NC(=O)c1cc2cccnc2c(F)c1-c1c(Cl)c(F)cc2c1C[C@](c1ccccc1)([C@@H]1CCCN1)O2` (atropisomer, axis not shown) [Compound 4, (S)-7-((S)-5-Chloro-6-fluoro-2-phenyl-2-((S)-pyrrolidin-2-yl)-2,3-dihydrobenzofuran-4-yl)-8-fluoroquinoline-6-carboxamide], for which the results for the IC50 (in assay [1]; with MSTO-211H cells) were under 50 nM and under 200 nM, respectively.

As to `NC(=O)c1cc2c(c(F)c1-c1c(Cl)c(F)cc3c1C[C@](c1ccccc1)([C@@H]1CCCN1)O3)OCC1(CC1)O2` (atropisomer, axis not shown) [Compound 5, (S)-6-((S)-5-Chloro-6-fluoro-2-phenyl-2-((S)-pyrrolidin-2-yl)-2,3-dihydrobenzofuran-4-yl)-5-fluoro-3H-spiro[benzo[b][1,4]dioxoine-2, l'-cyclopropane]-7-carboxamide], the IC50 was under 50 nM in assay [1] and under 200 nM in the assay on MSTO-211H cells.

Consider `NC(=O)c1cc2c(c(F)c1-c1c(Cl)c(F)cc3c1C[C@](c1ccccc1)([C@@H]1CCCN1)O3)OCc1nccnc1-2` (atropisomer, axis not shown) [Compound 6, (S)-8-((S)-5-Chloro-6-fluoro-2-phenyl-2-((S)-pyrrolidin-2-yl)-2,3-dihydrobenzofuran-4-yl)-7-fluoro-5H-chromeno[3,4-b]pyrazine-9-carboxamide], for which the IC50 in assay [1] was under 50 nM; in the assay with MSTO-211H cells it was under 200 nM.

With `NC(=O)c1cc2c(c(F)c1-c1c(Cl)c(F)cc3c1C[C@](c1ccccc1)([C@@H]1CCCN1)O3)OCc1n[nH]nc1-2` (atropisomer, axis not shown) [Compound 7, (S)-7-((S)-5-Chloro-6-fluoro-2-phenyl-2-((S)-pyrrolidin-2-yl)-2,3-dihydrobenzofuran-4-yl)-6-fluoro-2,4-dihydrochromeno[3,4-d][1,2,3]triazole-8-carboxamide], the IC50 in assay [1] is under 50 nM; in the assay on MSTO-211H cells it was 200 to 500 nM.

Take `Cn1cc2c(n1)COc1c-2cc(C(N)=O)c(-c2c(Cl)c(F)cc3c2C[C@](c2ccccc2)([C@@H]2CC4(CC4)CN2)O3)c1F` (atropisomer, axis not shown) [Compound 9, (S)-7-((S)-5-Chloro-6-fluoro-2-phenyl-2-((S)-5-azaspiro[2.4]heptan-6-yl)-2,3-dihydrobenzofuran-4-yl)-6-fluoro-2-methyl-2,4-dihydrochromeno[3,4-c]pyrazole-8-carboxamide hydrochloride]: the IC50 is under 50 nM in assay [1] and under 200 nM in the assay with MSTO-211H cells.

Take `NC(=O)c1cc2c(c(F)c1-c1c(Cl)c(F)cc3c1C[C@](c1ccccc1)([C@@H]1CCCN1)O3)Oc1nccnc1O2` (atropisomer, axis not shown) [Compound 10, (S)-8-((S)-5-Chloro-6-fluoro-2-phenyl-2-((S)-pyrrolidin-2-yl)-2,3-dihydrobenzofuran-4-yl)-9-fluorobenzo[5,6][1,4]dioxino[2,3-b]pyrazine-7-carboxamide]: the IC50 is under 50 nM in assay [1] and under 200 nM in the assay with MSTO-211H cells.

As for `CNC(=O)c1cc2c(c(F)c1-c1c(Cl)c(F)cc3c1C[C@](c1ccccc1)([C@@H]1CCCN1)O3)OCc1nn(C)cc1-2` (atropisomer, axis not shown) [Compound 39, (S)-7-((S)-5-Chloro-6-fluoro-2-phenyl-2-((S)-pyrrolidin-2-yl)-2,3-dihydrobenzofuran-4-yl)-6-fluoro-N,2-dimethyl-2,4-dihydrochromeno[3,4-c]pyrazole-8-carboxamide], the values for the IC50 (in assay [1]; in the assay with MSTO-211H cells) were under 50 nM and under 200 nM, respectively.

Take `CNC[C@@]1(c2ccccc2)Cc2c(cc(F)c(Cl)c2-c2c(C(N)=O)cc3c(c2F)OCc2nn(C)cc2-3)O1` (atropisomer, axis not shown) [Compound 41, (S)-7-((S)-5-Chloro-6-fluoro-2-((methylamino)methyl)-2-phenyl-2,3-dihydrobenzofuran-4-yl)-6-fluoro-2-methyl-2,4-dihydrochromeno[3,4-c]pyrazole-8-carboxamide]: the values for the IC50 (in assay [1]; with MSTO-211H cells) were under 50 nM and under 200 nM, respectively.

Turning to `NC(=O)c1cc2c(c(F)c1-c1c(Cl)c(F)cc3c1C[C@](c1ccccc1)([C@@H]1CCCN1)O3)OCc1nncn1-2` (atropisomer, axis not shown) [Compound 42, (S)-7-((S)-5-Chloro-6-fluoro-2-phenyl-2-((S)-pyrrolidin-2-yl)-2,3-dihydrobenzofuran-4-yl)-6-fluoro-4H-benzo[b][1,2,4]triazolo[4,3-d][1,4]oxazine-8-carboxamide], the IC50 in assay [1] was under 50 nM; in the assay with MSTO-211H cells, 500 to 5000 nM.

For `NC(=O)c1cc2c(c(F)c1-c1c(Cl)c(F)cc3c1C[C@](c1ccccc1)([C@@H]1CCCN1)O3)OCC21CCNCC1` (atropisomer, axis not shown) [Compound 44, (S)-6-((S)-5-Chloro-6-fluoro-2-phenyl-2-((S)-pyrrolidin-2-yl)-2,3-dihydrobenzofuran-4-yl)-7-fluoro-2H-spiro [benzofuran-3,4′-piperidine]-5-carboxamide], the IC50 in assay [1] was 50 to 500 nM; in the assay with MSTO-211H cells, over 5000 nM.

Turning to `NC(=O)c1cc2c(c(F)c1-c1c(Cl)c(F)cc3c1C[C@](c1ccccc1)([C@@H]1CCCN1)O3)OCc1n[nH]cc1-2` (atropisomer, axis not shown) [Compound 46, (S)-7-((S)-5-Chloro-6-fluoro-2-phenyl-2-((S)-pyrrolidin-2-yl)-2,3-dihydrobenzofuran-4-yl)-6-fluoro-2,4-dihydrochromeno[3,4-c]pyrazole-8-carboxamide], the values for the IC50 (in assay [1]; in the assay on MSTO-211H cells) were under 50 nM and under 200 nM, respectively.

As for `CCn1cc2c(n1)COc1c-2cc(C(N)=O)c(-c2c(Cl)c(F)cc3c2C[C@](c2ccccc2)([C@@H]2CCCN2)O3)c1F` (atropisomer, axis not shown) [Compound 62, (S)-7-((S)-5-Chloro-6-fluoro-2-phenyl-2-((S)-pyrrolidin-2-yl)-2,3-dihydrobenzofuran-4-yl)-2-ethyl-6-fluoro-2,4-dihydrochromeno[3,4-c]pyrazole-8-carboxamide], the IC50 is under 50 nM in assay [1] and under 200 nM in the assay with MSTO-211H cells.

Consider `NC(=O)c1cc2c(c(F)c1-c1c(Cl)c(F)cc3c1C[C@](c1ccccc1)([C@@H]1CCCN1)O3)Oc1cnncc1O2` (atropisomer, axis not shown) [Compound 67, (S)-8-((S)-5-Chloro-6-fluoro-2-phenyl-2-((S)-pyrrolidin-2-yl)-2,3-dihydrobenzofuran-4-yl)-9-fluorobenzo[5,6][1,4]dioxo[2,3-d]pyridazine-7-carboxamide], for which the results for the IC50 (in assay [1]; with MSTO-211H cells) were under 50 nM and 200 to 500 nM, respectively.

Consider `COCCCNC[C@@]1(c2ccccc2)Cc2c(cc(F)c(Cl)c2-c2c(C(N)=O)cc3c(c2F)OCc2nn(C)cc2-3)O1` (atropisomer, axis not shown) [Compound 83, (S)-7-((S)-5-Chloro-6-fluoro-2-(((3-methoxypropyl)amino)methyl)-2-phenyl-2,3-dihydrobenzofuran-4-yl)-6-fluoro-2-methyl-2,4-dihydrochromeno[3,4-c]pyrazole-8-carboxamide formate], for which, in the assay with MSTO-211H cells, the IC50 is under 200 nM.
